Organism: Rattus norvegicus
Experiment: DrugMatrix - Regimen: Daily Repeat
Type: toxicity, organism-based, Sprague-Dawley
Design: regimen Daily Repeat, gender Male, age 6-8 weeks
Conditions: in vivo, po, 200 mg/kg, route oral GAVAGE, dose level Low, […]; for ABSOLUTE BASOPHIL / ABSOLUTE EOSINOPHIL / ABSOLUTE LYMPHOCYTE / ABSOLUTE MONOCYTE / ABSOLUTE SEGMENTED NEUTROPHIL / BASOPHIL / EOSINOPHIL / ERYTHROCYTE COUNT / HEMATOCRIT / HEMOGLOBIN / LEUKOCYTE COUNT / LYMPHOCYTE / MEAN CORPUSCULAR HEMOGLOBIN / MEAN CORPUSCULAR HEMOGLOBIN CONCENTRATION / MEAN CORPUSCULAR VOLUME / MONOCYTE / NEUTROPHIL / NUCLEATED RED BLOOD CELLS / PLATELET COUNT: tissue Blood
[1] = 72 h, tissue Plasma, time 3 day
[2] = 120 h, tissue Plasma, time 5 day

## CCOc1ccc(NC(C)=O)cc1 [PHENACETIN]
72 h, time 3 day
  ABSOLUTE BASOPHIL: 0 CELLS/uL
  ABSOLUTE EOSINOPHIL: 0 CELLS/uL
  ABSOLUTE LYMPHOCYTE: 12319.33 CELLS/uL
  ABSOLUTE MONOCYTE: 297 CELLS/uL
  ABSOLUTE SEGMENTED NEUTROPHIL: 1617 CELLS/uL
  BASOPHIL: 0%
  EOSINOPHIL: 0%
  ERYTHROCYTE COUNT: 5.63 x10E6/uL
  HEMATOCRIT: 34.9%
  HEMOGLOBIN: 13.6 G/DL
  LEUKOCYTE COUNT: 14.23 x10E3/uL
  LYMPHOCYTE: 87%
  MEAN CORPUSCULAR HEMOGLOBIN: 24.17 pg
  MEAN CORPUSCULAR HEMOGLOBIN CONCENTRATION: 38.97 G/DL
  MEAN CORPUSCULAR VOLUME: 62.03 fL
  MONOCYTE: 2%
  NEUTROPHIL: 11%
  NUCLEATED RED BLOOD CELLS: 0 /100WBC
  PLATELET COUNT: 1192.67 x10E3/uL
[1]
  ALANINE AMINOTRANSFERASE: 73 u/L
  ALBUMIN: 4.07 G/DL
  ALKALINE PHOSPHATASE: 405 u/L
  ASPARTATE AMINOTRANSFERASE: 98.33 u/L
  BLOOD UREA NITROGEN: 12 mg/dL
  CARBON DIOXIDE: 24.67 mmol/L
  CHLORIDE: 101 MEQ/L
  CHOLESTEROL: 65.33 mg/dL
  CREATININE: 0.2 mg/dL
  GLUCOSE: 172 mg/dL
  LACTATE DEHYDROGENASE: 186.33 u/L
  LIPASE: 11.33 u/L
  PHOSPHORUS: 11.6 mg/dL
  POTASSIUM: 6.01 MEQ/L
  SODIUM: 142.63 MEQ/L
  TOTAL BILIRUBIN: 0.2 mg/dL
  TOTAL PROTEIN: 5.6 G/DL
  URIC ACID: 1.77 mg/dL
120 h, time 5 day
  ABSOLUTE BASOPHIL: 0 CELLS/uL
  ABSOLUTE EOSINOPHIL: 0 CELLS/uL
  ABSOLUTE LYMPHOCYTE: 14305.33 CELLS/uL
  ABSOLUTE MONOCYTE: 246 CELLS/uL
  ABSOLUTE SEGMENTED NEUTROPHIL: 1648.67 CELLS/uL
  BASOPHIL: 0%
  EOSINOPHIL: 0%
  ERYTHROCYTE COUNT: 5.8 x10E6/uL
  HEMATOCRIT: 35.23%
  HEMOGLOBIN: 14.07 G/DL
  LEUKOCYTE COUNT: 16.2 x10E3/uL
  LYMPHOCYTE: 88%
  MEAN CORPUSCULAR HEMOGLOBIN: 24.27 pg
  MEAN CORPUSCULAR HEMOGLOBIN CONCENTRATION: 39.93 G/DL
  MEAN CORPUSCULAR VOLUME: 60.8 fL
  MONOCYTE: 1.67%
  NEUTROPHIL: 10.33%
  NUCLEATED RED BLOOD CELLS: 0 /100WBC
  PLATELET COUNT: 1381.67 x10E3/uL
[2]
  ALANINE AMINOTRANSFERASE: 72.67 u/L
  ALBUMIN: 4.13 G/DL
  ALKALINE PHOSPHATASE: 403.33 u/L
  ASPARTATE AMINOTRANSFERASE: 95.33 u/L
  BLOOD UREA NITROGEN: 13.33 mg/dL
  CARBON DIOXIDE: 31.33 mmol/L
  CHLORIDE: 101.33 MEQ/L
  CHOLESTEROL: 68.67 mg/dL
  CREATINE PHOSPHOKINASE: 257.33 u/L
  CREATININE: 0.19 mg/dL
  GLUCOSE: 164.67 mg/dL
  LACTATE DEHYDROGENASE: 323.67 u/L
  LIPASE: 11.67 u/L
  PHOSPHORUS: 10.7 mg/dL
  POTASSIUM: 6.24 MEQ/L
  SODIUM: 143.9 MEQ/L
  TOTAL BILIRUBIN: 0.2 mg/dL
  TOTAL PROTEIN: 5.87 G/DL
  URIC ACID: 1.77 mg/dL

From ChEMBL document CHEMBL3885881, “DrugMatrix”
